Key:
[1] = biological target: T1, ABL1(F317L)-phosphorylated (Homo sapiens, UniProt P00519, F317L); experiment: KinomeScan; type: binding; conditions: 1uM
T1 construct: purchased DiscoveRx KINOMEscan

[2] = biological target: T2, ABL1(T315I)-nonphosphorylated (Homo sapiens, UniProt P00519, T315I); experiment: KinomeScan; type: binding; conditions: 1uM
T2 construct: purchased DiscoveRx KINOMEscan

[3] = biological target: T3, ALK(C1156Y) (Homo sapiens, UniProt Q9UM73, C1156Y); experiment: KinomeScan; type: binding; conditions: 1uM
T3 construct: purchased DiscoveRx KINOMEscan

[4] = biological target: T4, ASK2 (Homo sapiens, UniProt O95382); experiment: KinomeScan; type: binding; conditions: 1uM
T4 construct: purchased DiscoveRx KINOMEscan

[5] = biological target: T5, AURKB (Homo sapiens, UniProt Q96GD4); experiment: KinomeScan; type: binding; conditions: 1uM
T5 construct: purchased DiscoveRx KINOMEscan

[6] = biological target: T6, CAMK2B (Homo sapiens, UniProt Q13554); experiment: KinomeScan; type: binding; conditions: 1uM
T6 construct: purchased DiscoveRx KINOMEscan

[7] = biological target: T7, CAMKK1 (Homo sapiens, UniProt Q8N5S9); experiment: KinomeScan; type: binding; conditions: 1uM
T7 construct: purchased DiscoveRx KINOMEscan

[8] = biological target: T8, CDC2L1 (Homo sapiens, UniProt P21127); experiment: KinomeScan; type: binding; conditions: 1uM
T8 construct: purchased DiscoveRx KINOMEscan

[9] = biological target: T9, CDK4-cyclinD3 (Homo sapiens, UniProt P11802); experiment: KinomeScan; type: binding; conditions: 1uM
T9 construct: purchased DiscoveRx KINOMEscan
T9 sequence (P11802 whole entry): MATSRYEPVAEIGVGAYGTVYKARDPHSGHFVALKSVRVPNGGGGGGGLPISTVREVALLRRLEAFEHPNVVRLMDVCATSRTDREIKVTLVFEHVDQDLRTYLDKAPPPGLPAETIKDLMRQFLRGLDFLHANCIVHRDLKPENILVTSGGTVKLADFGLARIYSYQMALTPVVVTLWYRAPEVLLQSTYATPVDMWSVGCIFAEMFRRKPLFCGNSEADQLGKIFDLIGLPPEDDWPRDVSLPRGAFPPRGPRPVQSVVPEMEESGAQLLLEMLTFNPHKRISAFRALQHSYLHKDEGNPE
T9 sequence (P30281 whole entry partner): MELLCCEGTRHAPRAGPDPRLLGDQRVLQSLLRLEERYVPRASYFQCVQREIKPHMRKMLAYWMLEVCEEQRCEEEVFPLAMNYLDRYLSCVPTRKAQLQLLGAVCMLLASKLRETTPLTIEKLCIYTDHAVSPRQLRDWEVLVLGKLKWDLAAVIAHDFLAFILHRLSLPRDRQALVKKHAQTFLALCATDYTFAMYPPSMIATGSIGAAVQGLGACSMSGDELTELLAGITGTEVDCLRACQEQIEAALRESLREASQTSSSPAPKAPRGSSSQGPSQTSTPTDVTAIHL

[10] = biological target: T10, CDK5 (Homo sapiens, UniProt Q00535); experiment: KinomeScan; type: binding; conditions: 1uM
T10 construct: purchased DiscoveRx KINOMEscan

[11] = biological target: T11, CHEK2 (Homo sapiens, UniProt O96017); experiment: KinomeScan; type: binding; conditions: 1uM
T11 construct: purchased DiscoveRx KINOMEscan
T11 sequence (O96017 whole entry): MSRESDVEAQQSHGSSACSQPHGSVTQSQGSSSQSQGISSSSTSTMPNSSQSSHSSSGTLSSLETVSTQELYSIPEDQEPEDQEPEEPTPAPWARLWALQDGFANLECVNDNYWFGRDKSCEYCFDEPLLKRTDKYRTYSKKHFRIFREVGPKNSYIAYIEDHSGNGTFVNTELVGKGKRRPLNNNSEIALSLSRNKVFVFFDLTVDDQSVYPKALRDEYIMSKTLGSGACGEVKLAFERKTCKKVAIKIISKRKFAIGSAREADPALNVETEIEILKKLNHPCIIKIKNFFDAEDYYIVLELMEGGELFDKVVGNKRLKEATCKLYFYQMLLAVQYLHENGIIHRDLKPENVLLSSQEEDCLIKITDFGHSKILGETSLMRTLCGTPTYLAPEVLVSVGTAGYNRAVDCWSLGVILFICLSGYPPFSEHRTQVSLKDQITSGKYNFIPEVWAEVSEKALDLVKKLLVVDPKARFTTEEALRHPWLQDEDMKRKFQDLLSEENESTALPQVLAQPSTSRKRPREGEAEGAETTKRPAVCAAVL

[12] = biological target: T12, CLK3 (Homo sapiens, UniProt P49761); experiment: KinomeScan; type: binding; conditions: 1uM
T12 construct: purchased DiscoveRx KINOMEscan

[13] = biological target: T13, CSNK2A2 (Homo sapiens, UniProt P19784); experiment: KinomeScan; type: binding; conditions: 1uM
T13 construct: purchased DiscoveRx KINOMEscan

[14] = biological target: T14, DYRK2 (Homo sapiens, UniProt Q92630); experiment: KinomeScan; type: binding; conditions: 1uM
T14 construct: purchased DiscoveRx KINOMEscan
T14 sequence (Q92630 whole entry): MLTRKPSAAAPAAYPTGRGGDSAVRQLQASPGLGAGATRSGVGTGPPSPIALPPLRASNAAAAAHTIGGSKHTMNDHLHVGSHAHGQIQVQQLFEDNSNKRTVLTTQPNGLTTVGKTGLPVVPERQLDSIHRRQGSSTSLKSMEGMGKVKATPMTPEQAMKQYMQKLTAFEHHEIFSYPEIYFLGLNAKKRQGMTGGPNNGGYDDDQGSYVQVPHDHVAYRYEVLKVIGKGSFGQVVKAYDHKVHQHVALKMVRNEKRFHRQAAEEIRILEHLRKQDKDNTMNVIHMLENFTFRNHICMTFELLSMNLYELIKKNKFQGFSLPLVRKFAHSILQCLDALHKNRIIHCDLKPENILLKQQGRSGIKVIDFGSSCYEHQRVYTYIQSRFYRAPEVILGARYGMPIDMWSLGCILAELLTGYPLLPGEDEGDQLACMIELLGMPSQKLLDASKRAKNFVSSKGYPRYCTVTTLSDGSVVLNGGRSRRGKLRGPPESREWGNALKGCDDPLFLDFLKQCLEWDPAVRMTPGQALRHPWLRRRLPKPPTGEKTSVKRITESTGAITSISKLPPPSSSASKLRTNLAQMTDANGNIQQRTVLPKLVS

[15] = biological target: T15, EPHA2 (Homo sapiens, UniProt P29317); experiment: KinomeScan; type: binding; conditions: 1uM
T15 construct: purchased DiscoveRx KINOMEscan

[16] = biological target: T16, EPHA3 (Homo sapiens, UniProt P29320); experiment: KinomeScan; type: binding; conditions: 1uM
T16 construct: purchased DiscoveRx KINOMEscan
T16 sequence (P29320 21-983): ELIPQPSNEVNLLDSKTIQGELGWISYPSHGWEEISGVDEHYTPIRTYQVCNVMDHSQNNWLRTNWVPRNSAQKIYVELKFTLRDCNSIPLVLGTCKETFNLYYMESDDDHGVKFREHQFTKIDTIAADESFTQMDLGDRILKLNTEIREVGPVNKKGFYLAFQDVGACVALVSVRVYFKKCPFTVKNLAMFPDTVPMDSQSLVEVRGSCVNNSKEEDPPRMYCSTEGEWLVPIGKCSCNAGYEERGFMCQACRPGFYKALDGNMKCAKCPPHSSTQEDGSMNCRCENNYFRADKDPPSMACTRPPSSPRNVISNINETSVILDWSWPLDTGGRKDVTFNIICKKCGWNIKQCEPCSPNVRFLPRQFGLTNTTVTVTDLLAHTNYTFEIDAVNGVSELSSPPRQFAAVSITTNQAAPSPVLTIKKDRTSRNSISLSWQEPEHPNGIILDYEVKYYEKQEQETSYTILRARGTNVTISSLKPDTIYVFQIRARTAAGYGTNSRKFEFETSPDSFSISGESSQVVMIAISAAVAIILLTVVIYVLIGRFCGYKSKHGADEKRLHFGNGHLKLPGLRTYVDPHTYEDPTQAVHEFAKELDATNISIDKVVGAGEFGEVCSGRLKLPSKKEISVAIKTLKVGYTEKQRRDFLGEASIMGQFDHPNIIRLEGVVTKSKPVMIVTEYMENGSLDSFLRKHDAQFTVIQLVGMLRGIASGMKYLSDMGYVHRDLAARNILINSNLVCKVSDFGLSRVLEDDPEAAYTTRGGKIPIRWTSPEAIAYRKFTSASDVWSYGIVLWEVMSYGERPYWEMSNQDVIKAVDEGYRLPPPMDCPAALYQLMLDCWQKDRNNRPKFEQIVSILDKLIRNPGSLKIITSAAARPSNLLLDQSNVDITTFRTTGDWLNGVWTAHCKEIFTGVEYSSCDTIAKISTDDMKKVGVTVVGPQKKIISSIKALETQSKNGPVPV

[17] = biological target: T17, ERBB3 (Homo sapiens, UniProt P21860); experiment: KinomeScan; type: binding; conditions: 1uM
T17 construct: purchased DiscoveRx KINOMEscan

[18] = biological target: T18, JNK3 (Homo sapiens, UniProt P53779); experiment: KinomeScan; type: binding; conditions: 1uM
T18 construct: purchased DiscoveRx KINOMEscan

[19] = biological target: T19, LATS2 (Homo sapiens, UniProt Q9NRM7); experiment: KinomeScan; type: binding; conditions: 1uM
T19 construct: purchased DiscoveRx KINOMEscan

[20] = biological target: T20, MARK1 (Homo sapiens, UniProt Q9P0L2); experiment: KinomeScan; type: binding; conditions: 1uM
T20 construct: purchased DiscoveRx KINOMEscan

[21] = biological target: T21, MEK1 (Homo sapiens, UniProt Q02750); experiment: KinomeScan; type: binding; conditions: 1uM
T21 construct: purchased DiscoveRx KINOMEscan

[22] = biological target: T22, MEK3 (Homo sapiens, UniProt P46734); experiment: KinomeScan; type: binding; conditions: 1uM
T22 construct: purchased DiscoveRx KINOMEscan

[23] = biological target: T23, MKNK1 (Homo sapiens, UniProt Q9BUB5); experiment: KinomeScan; type: binding; conditions: 1uM
T23 construct: purchased DiscoveRx KINOMEscan
T23 sequence (Q9BUB5 whole entry): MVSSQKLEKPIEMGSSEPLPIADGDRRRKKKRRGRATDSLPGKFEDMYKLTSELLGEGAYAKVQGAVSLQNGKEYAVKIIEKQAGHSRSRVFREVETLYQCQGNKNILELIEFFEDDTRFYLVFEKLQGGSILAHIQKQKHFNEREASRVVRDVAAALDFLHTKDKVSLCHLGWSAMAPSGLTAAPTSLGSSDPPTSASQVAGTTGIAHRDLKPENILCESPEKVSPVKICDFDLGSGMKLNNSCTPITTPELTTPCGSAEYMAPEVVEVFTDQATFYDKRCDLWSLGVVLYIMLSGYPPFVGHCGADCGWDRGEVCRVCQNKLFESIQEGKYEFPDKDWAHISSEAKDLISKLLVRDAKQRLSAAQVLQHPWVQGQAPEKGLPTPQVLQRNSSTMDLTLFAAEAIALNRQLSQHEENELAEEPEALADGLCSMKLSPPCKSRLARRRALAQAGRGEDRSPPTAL

[24] = biological target: T24, NDR1 (Homo sapiens, UniProt Q15208); experiment: KinomeScan; type: binding; conditions: 1uM
T24 construct: purchased DiscoveRx KINOMEscan

[25] = biological target: T25, NEK10 (Homo sapiens, UniProt Q6ZWH5); experiment: KinomeScan; type: binding; conditions: 1uM
T25 construct: purchased DiscoveRx KINOMEscan

[26] = biological target: T26, NEK4 (Homo sapiens, UniProt P51957); experiment: KinomeScan; type: binding; conditions: 1uM
T26 construct: purchased DiscoveRx KINOMEscan

[27] = biological target: T27, NEK6 (Homo sapiens, UniProt Q9HC98); experiment: KinomeScan; type: binding; conditions: 1uM
T27 construct: purchased DiscoveRx KINOMEscan

[28] = biological target: T28, PAK2 (Homo sapiens, UniProt Q13177); experiment: KinomeScan; type: binding; conditions: 1uM
T28 construct: purchased DiscoveRx KINOMEscan
T28 sequence (Q13177 whole entry): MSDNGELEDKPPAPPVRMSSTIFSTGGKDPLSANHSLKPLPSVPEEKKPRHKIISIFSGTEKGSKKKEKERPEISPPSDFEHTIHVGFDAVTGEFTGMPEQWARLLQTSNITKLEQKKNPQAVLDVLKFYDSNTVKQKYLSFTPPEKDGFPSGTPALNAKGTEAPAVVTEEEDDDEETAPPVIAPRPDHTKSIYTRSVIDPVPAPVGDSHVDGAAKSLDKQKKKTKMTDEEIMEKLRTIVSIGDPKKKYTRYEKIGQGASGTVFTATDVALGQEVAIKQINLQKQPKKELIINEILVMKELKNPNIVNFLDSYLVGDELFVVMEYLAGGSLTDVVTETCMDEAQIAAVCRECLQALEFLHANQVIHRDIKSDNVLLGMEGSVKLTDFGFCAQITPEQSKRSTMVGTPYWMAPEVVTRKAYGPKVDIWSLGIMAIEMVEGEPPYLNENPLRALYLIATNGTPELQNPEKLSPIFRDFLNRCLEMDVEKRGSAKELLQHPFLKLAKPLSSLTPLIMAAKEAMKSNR

[29] = biological target: T29, PFTAIRE2 (Homo sapiens, UniProt Q96Q40); experiment: KinomeScan; type: binding; conditions: 1uM
T29 construct: purchased DiscoveRx KINOMEscan

[30] = biological target: T30, PHKG1 (Homo sapiens, UniProt Q16816); experiment: KinomeScan; type: binding; conditions: 1uM
T30 construct: purchased DiscoveRx KINOMEscan

[31] = biological target: T31, PIP5K1A (Homo sapiens, UniProt Q99755); experiment: KinomeScan; type: binding; conditions: 1uM
T31 construct: purchased DiscoveRx KINOMEscan

[32] = biological target: T32, PKAC-beta (Homo sapiens, UniProt P22694); experiment: KinomeScan; type: binding; conditions: 1uM
T32 construct: purchased DiscoveRx KINOMEscan

[33] = biological target: T33, PLK2 (Homo sapiens, UniProt Q9NYY3); experiment: KinomeScan; type: binding; conditions: 1uM
T33 construct: purchased DiscoveRx KINOMEscan

[34] = biological target: T34, PRKCQ (Homo sapiens, UniProt Q04759); experiment: KinomeScan; type: binding; conditions: 1uM
T34 construct: purchased DiscoveRx KINOMEscan
T34 sequence (Q04759 whole entry): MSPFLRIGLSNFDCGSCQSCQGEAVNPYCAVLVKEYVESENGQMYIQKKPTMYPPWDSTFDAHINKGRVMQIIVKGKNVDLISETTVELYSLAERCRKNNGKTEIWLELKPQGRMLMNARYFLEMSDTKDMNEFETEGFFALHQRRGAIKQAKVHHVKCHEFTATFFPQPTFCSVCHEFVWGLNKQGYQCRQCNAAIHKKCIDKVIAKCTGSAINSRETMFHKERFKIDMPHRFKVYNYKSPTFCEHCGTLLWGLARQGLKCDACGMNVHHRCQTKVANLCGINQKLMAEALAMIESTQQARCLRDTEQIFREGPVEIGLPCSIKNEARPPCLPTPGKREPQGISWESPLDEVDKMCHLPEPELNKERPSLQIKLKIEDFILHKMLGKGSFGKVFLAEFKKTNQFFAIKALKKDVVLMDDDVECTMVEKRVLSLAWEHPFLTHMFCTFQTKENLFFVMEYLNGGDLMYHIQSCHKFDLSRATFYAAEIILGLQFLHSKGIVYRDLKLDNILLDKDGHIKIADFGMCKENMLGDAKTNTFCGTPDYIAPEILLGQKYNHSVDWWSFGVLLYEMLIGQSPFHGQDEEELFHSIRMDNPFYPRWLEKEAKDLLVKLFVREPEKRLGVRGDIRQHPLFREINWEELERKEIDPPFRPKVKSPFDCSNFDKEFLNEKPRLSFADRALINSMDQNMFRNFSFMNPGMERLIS

[35] = biological target: T35, PRKG2 (Homo sapiens, UniProt Q13237); experiment: KinomeScan; type: binding; conditions: 1uM
T35 construct: purchased DiscoveRx KINOMEscan

[36] = biological target: T36, ROCK2 (Homo sapiens, UniProt O75116); experiment: KinomeScan; type: binding; conditions: 1uM
T36 construct: purchased DiscoveRx KINOMEscan

[37] = biological target: T37, STK39 (Homo sapiens, UniProt Q9UEW8); experiment: KinomeScan; type: binding; conditions: 1uM
T37 construct: purchased DiscoveRx KINOMEscan

[38] = biological target: T38, TAOK2 (Homo sapiens, UniProt Q9UL54); experiment: KinomeScan; type: binding; conditions: 1uM
T38 construct: purchased DiscoveRx KINOMEscan

[39] = biological target: T39, WNK3 (Homo sapiens, UniProt Q9BYP7); experiment: KinomeScan; type: binding; conditions: 1uM
T39 construct: purchased DiscoveRx KINOMEscan

[40] = biological target: T40, YES (Homo sapiens, UniProt P07947); experiment: KinomeScan; type: binding; conditions: 1uM
T40 construct: purchased DiscoveRx KINOMEscan
T40 sequence (P07947 whole entry): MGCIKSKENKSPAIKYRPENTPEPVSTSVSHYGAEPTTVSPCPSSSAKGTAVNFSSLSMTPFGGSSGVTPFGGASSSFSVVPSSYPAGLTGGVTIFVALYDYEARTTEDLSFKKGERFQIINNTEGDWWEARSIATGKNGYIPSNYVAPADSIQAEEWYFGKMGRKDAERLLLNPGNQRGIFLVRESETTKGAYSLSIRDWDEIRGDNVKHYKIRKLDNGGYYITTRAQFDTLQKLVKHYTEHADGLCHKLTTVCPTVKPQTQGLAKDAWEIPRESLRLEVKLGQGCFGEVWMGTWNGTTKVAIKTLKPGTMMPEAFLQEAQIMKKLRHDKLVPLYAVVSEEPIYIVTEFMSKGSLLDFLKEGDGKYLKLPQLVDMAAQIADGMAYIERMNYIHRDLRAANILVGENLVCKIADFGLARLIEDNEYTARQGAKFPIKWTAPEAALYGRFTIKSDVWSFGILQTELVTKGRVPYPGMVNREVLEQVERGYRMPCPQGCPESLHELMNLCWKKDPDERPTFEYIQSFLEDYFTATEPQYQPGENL

[41] = biological target: T41, ZAK (Homo sapiens, UniProt Q9NYL2); experiment: KinomeScan; type: binding; conditions: 1uM
T41 construct: purchased DiscoveRx KINOMEscan

[42] = biological target: T42, Vps34 (Homo sapiens, UniProt Q8NEB9); experiment: ADP-glo biochemical assay
T42 construct: purchased Invitrogen
Procedure: (§1) The reaction in each tube was started immediately by adding ATP and kept going for an hour under 37°C. After the tube cooled for 5 minutes at room temperature, 5 μL solvent reactions were carried out in a 384-well plate. Then 5 μL of ADP-Glo™ reagent was added into each well to stop the reaction and consume the remaining ADP within 40 minutes. At the end, 10 μL of kinase detection reagent was added into the well and incubated for 30 minutes to produce a luminescence signal. Luminescence signal was measured with an automated plate reader (Perkin-Elmer Envision) and each measurement was performed in triplicate.

[43] = biological target: T43, PI4KB (Homo sapiens, UniProt Q9UBF8); experiment: ADP-glo biochemical assay
T43 construct: purchased Invitrogen
Procedure: as §1

[44] = biological target: PI3Kγ (Mus musculus, UniProt Q9JHG7); experiment: cell-based

Structure (SMILES): Cc1nc(NC(=O)[C@@H](N)C(C)C)sc1-c1cnc(Cl)c(NS(=O)(=O)c2ccccc2)c1 [PI3KD-IN-015]
- KinomeScan ABL1(F317L)-phosphorylated [1]: 99
- KinomeScan ABL1(T315I)-nonphosphorylated [2]: 100
- KinomeScan ALK(C1156Y) [3]: 100
- KinomeScan ASK2 [4]: 84
- KinomeScan AURKB [5]: 100
- KinomeScan CAMK2B [6]: 91
- KinomeScan CAMKK1 [7]: 100
- KinomeScan CDC2L1 [8]: 100
- KinomeScan CDK4-cyclinD3 [9]: 100
- KinomeScan CDK5 [10]: 100
- KinomeScan CHEK2 [11]: 88
- KinomeScan CLK3 [12]: 100
- KinomeScan CSNK2A2 [13]: 39
- KinomeScan DYRK2 [14]: 100
- KinomeScan EPHA2 [15]: 100
- KinomeScan EPHA3 [16]: 86
- KinomeScan ERBB3 [17]: 100
- KinomeScan JNK3 [18]: 100
- KinomeScan LATS2 [19]: 100
- KinomeScan MARK1 [20]: 100
- KinomeScan MEK1 [21]: 100
- KinomeScan MEK3 [22]: 93
- KinomeScan MKNK1 [23]: 100
- KinomeScan NDR1 [24]: 100
- KinomeScan NEK10 [25]: 83
- KinomeScan NEK4 [26]: 98
- KinomeScan NEK6 [27]: 100
- KinomeScan PAK2 [28]: 89
- KinomeScan PFTAIRE2 [29]: 100
- KinomeScan PHKG1 [30]: 100
- KinomeScan PIP5K1A [31]: 84
- KinomeScan PKAC-beta [32]: 87
- KinomeScan PLK2 [33]: 83
- KinomeScan PRKCQ [34]: 100
- KinomeScan PRKG2 [35]: 100
- KinomeScan ROCK2 [36]: 85
- KinomeScan STK39 [37]: 100
- KinomeScan TAOK2 [38]: 96
- KinomeScan WNK3 [39]: 100
- KinomeScan YES [40]: 100
- KinomeScan ZAK [41]: 100
- IC50 [42]: 280 nM
- IC50 [43]: 172 nM
- EC50 [44]: > 3 µM

Source: paper PMC5078040 (Oncotarget, 2016)
